Experimental data published in patent publication US11932658B2 (BRISTOL-MYERS SQUIBB COMPANY, priority 2016, dated 2024).

Each molecule was assayed against T1, PAR4 (Homo sapiens, UniProt Q96RI0) (assay: PAR4 FLIPR assay (antagonism of agonist peptide-induced calcium mobilization)).
T1 construct: expressed in transfected cells; host or cells: HEK293 PAR4 Clone 1.2A (BMS Arctic ID 383940)
T1 sequence (Q96RI0 18-385): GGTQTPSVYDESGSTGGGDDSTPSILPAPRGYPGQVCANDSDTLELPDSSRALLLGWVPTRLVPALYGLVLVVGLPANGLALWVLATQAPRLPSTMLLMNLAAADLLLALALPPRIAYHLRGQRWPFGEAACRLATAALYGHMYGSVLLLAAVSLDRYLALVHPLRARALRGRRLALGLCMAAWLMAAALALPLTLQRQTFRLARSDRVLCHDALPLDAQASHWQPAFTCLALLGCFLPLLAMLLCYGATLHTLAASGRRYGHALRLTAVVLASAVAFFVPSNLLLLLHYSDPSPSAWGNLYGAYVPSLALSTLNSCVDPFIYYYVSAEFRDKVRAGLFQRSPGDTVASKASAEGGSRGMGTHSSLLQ
Type: cell-based
How it was run: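 Antagonism was taken as block of calcium mobilization evoked by the agonist peptide H-Ala-Phe(4-F)-Pro-Gly-Trp-Leu-Val-Lys-Asn-[…]-NH2, added after 30 min room-temperature compound preincubation in dye-loaded PAR4-transfected HEK293 cells (endogenous PAR1). Fluorescence was read on FDSS, with compound addition alone used as the agonist counter-screen; values come from 11-point concentration-response curves.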
`COc1cnc2c(-c3nc4ccc5c(c4s3)OC[C@H](COC(=O)Nc3cnc(C)nc3)O5)cc(C)cc2n1` [Example 103, (R)-(2-(2-methoxy-7-methylquinoxalin-5-yl)-7,8-dihydro-[1,4]dioxino [2′,3′:3,4]benzo[1,2-d]thiazol-7-yl)methyl (2-methylpyrimidin-5-yl)carbamate] gave an IC50 of 2.8 nM.
Work on `COc1ccc(NC(=O)OC[C@H]2COc3c(ccc4nc(-c5cc(C)cc6nc(OC)cnc56)sc34)O2)cn1` [Example 104, (R)-(2-(2-methoxy-7-methylquinoxalin-5-yl)-7,8-dihydro-[1,4]dioxino[2′,3′:3,4]benzo[1,2-d]thiazol-7-yl)methyl (6-methoxypyridin-3-yl)carbamate] yielded an IC50 of 1.9 nM.
For `COc1cnc2c(-c3nc4ccc5c(c4s3)OC[C@H](COC(=O)Nc3ccc(C#N)nc3)O5)cc(C)cc2n1` [Example 105, (R)-(2-(2-methoxy-7-methylquinoxalin-5-yl)-7,8-dihydro-[1,4]dioxino[2′,3′:3,4]benzo[1,2-d]thiazol-7-yl)methyl (6-cyanopyridin-3-yl)carbamate], the IC50 was 1.6 nM.
`COc1cnc2c(-c3nc4ccc5c(c4s3)OC[C@H](COC(=O)Nc3ccc4[nH]c(=O)oc4c3)O5)cc(C)cc2n1` [Example 106, (R)-(2-(2-methoxy-7-methylquinoxalin-5-yl)-7,8-dihydro-[1,4]dioxino[2′,3′:3,4]benzo [1,2-d]thiazol-7-yl)methyl (2-oxo-2,3-dihydrobenzo[d]oxazol-6-yl)carbamate] gave an IC50 of 2 nM.
With `COc1cnc2c(-c3nc4ccc5c(c4s3)OC[C@H](COC(=O)Nc3cnc4[nH]ccc4c3)O5)cc(C)cc2n1` [Example 107, (R)-(2-(2-methoxy-7-methylquinoxalin-5-yl)-7,8-dihydro-[1,4]dioxino[2′,3′:3,4]benzo [1,2-d]thiazol-7-yl)methyl 1H-pyrrolo[2,3-b]pyridin-5-ylcarbamate] the IC50 was 1.7 nM.
Molecule `COc1cnc2c(-c3nc4ccc5c(c4s3)OC[C@H](COC(=O)Nc3cccnc3)O5)cc(C)cc2n1` [Example 108, (R)-(2-(2-methoxy-7-methylquinoxalin-5-yl)-7,8-dihydro-[1,4]dioxino[2′,3′:3,4]benzo[1,2-d]thiazol-7-yl)methyl pyridin-3-ylcarbamate] has an IC50 of 1.8 nM.
`COc1cnc2c(-c3nc4ccc5c(c4s3)OC[C@H](COC(=O)Nc3ccc(Br)nc3)O5)cc(C)cc2n1` [Example 109, (R)-(2-(2-methoxy-7-methylquinoxalin-5-yl)-7,8-dihydro-[1,4]dioxino[2′,3′:3,4]benzo[1,2-d]thiazol-7-yl)methyl (6-bromopyridin-3-yl)carbamate] showed an IC50 of 2.6 nM.
Work on `C=Cc1ccc(NC(=O)OC[C@H]2COc3c(ccc4nc(-c5cc(C)cc6nc(OC)cnc56)sc34)O2)cn1` [Example 110, (R)-(2-(2-methoxy-7-methylquinoxalin-5-yl)-7,8-dihydro-[1,4]dioxino[2′,3′:3,4]benzo[1,2-d]thiazol-7-yl)methyl (6-vinylpyridin-3-yl)carbamate] yielded an IC50 of 1.6 nM.
For `COc1cnc2c(-c3nc4ccc5c(c4s3)OC[C@H](COC(=O)Nc3ccc([C@H](O)CO)nc3)O5)cc(C)cc2n1` [Example 111, ((R)-2-(2-methoxy-7-methylquinoxalin-5-yl)-7,8-dihydro-[1,4]dioxino[2′,3′:3,4]benzo [1,2-d]thiazol-7-yl)methyl (6-((S)-1,2-dihydroxyethyl)pyridin-3-yl)carbamate], the IC50 was 2.3 nM.
`COc1cnc2c(-c3nc4ccc5c(c4s3)OC[C@H](COC(=O)Nc3ccc(F)nc3)O5)cc(C)cc2n1` [Example 112, (R)-(2-(2-methoxy-7-methylquinoxalin-5-yl)-7,8-dihydro-[1,4]dioxino[2′,3′:3,4]benzo[1,2-d]thiazol-7-yl)methyl (6-fluoropyridin-3-yl)carbamate] was tested, and the IC50 was 7.1 nM.
`COc1cnc2c(-c3nc4ccc5c(c4s3)OC[C@H](COC(=O)Nc3cncc(C#N)c3)O5)cc(C)cc2n1` [Example 113, (R)-(2-(2-methoxy-7-methylquinoxalin-5-yl)-7,8-dihydro-[1,4]dioxino[2′,3′:3,4]benzo[1,2-d]thiazol-7-yl)methyl (5-cyanopyridin-3-yl)carbamate] gave an IC50 of 1.9 nM.
For `COc1cnc2c(-c3nc4ccc5c(c4s3)OC[C@H](COC(=O)Nc3ccc(C(=O)N4CCOCC4)cc3)O5)cc(C)cc2n1` [Example 114, (R)-(2-(2-methoxy-7-methylquinoxalin-5-yl)-7,8-dihydro-[1,4]dioxino[2′,3′:3,4]benzo [1,2-d]thiazol-7-yl)methyl (4-(morpholine-4-carbonyl)phenyl)carbamate], the IC50 was 1 nM.
Work on `COc1cnc2c(-c3nc4c(C)cc5c(c4s3)OCC(COC(=O)Nc3ccc(Cl)nc3)O5)cc(C)cc2n1` (stereo not shown) [Example 115, (2-(2-methoxy-7-methylquinoxalin-5-yl)-4-methyl-7,8-dihydro-[1,4]dioxino[2′,3′:3,4]benzo [1,2-d]thiazol-7-yl)methyl (6-chloropyridin-3-yl)carbamate] yielded an IC50 of 1.4 nM.
With `COc1cnc2c(-c3nc4c(C)cc5c(c4s3)OCC(COC(=O)Nc3ccc(N(C)C)nc3)O5)cc(C)cc2n1` (stereo not shown) [Example 116, (2-(2-methoxy-7-methylquinoxalin-5-yl)-4-methyl-7,8-dihydro-[1,4]dioxino[2′,3′:3,4]benzo[1,2-d]thiazol-7-yl)methyl (6-(dimethylamino)pyridin-3-yl)carbamate] the IC50 was 3.4 nM.
Work on `COc1cnc2c(-c3nc4c(C)cc5c(c4s3)OCC(COC(=O)Nc3ccnc(-c4ccccc4)c3)O5)cc(C)cc2n1` (stereo not shown) [Example 117, (2-(2-methoxy-7-methylquinoxalin-5-yl)-4-methyl-7,8-dihydro-[1,4]dioxino[2′,3′:3,4]benzo[1,2-d]thiazol-7-yl)methyl (2-phenylpyridin-4-yl)carbamate] yielded an IC50 of 1.1 nM.
`COc1cnc2c(-c3nc4c(C)cc5c(c4s3)OCC(COC(=O)Nc3ccnc(F)c3)O5)cc(C)cc2n1` (stereo not shown) [Example 118, (2-(2-methoxy-7-methylquinoxalin-5-yl)-4-methyl-7,8-dihydro-[1,4]dioxino[2′,3′:3,4]benzo[1,2-d]thiazol-7-yl)methyl (2-fluoropyridin-4-yl)carbamate] was tested, and the IC50 was 16 nM.
For `COc1cnc2c(-c3nc4c(C)cc5c(c4s3)OCC(COC(=O)Nc3cnc(C)c(C)c3)O5)cc(C)cc2n1` (stereo not shown) [Example 119, (2-(2-methoxy-7-methylquinoxalin-5-yl)-4-methyl-7,8-dihydro-[1,4]dioxino[2′,3′:3,4]benzo[1,2-d]thiazol-7-yl)methyl (5,6-dimethylpyridin-3-yl)carbamate], the IC50 was 2.1 nM.
With `COc1cnc2c(-c3nc4c(C)cc5c(c4s3)OCC(COC(=O)Nc3ccc(C)nc3)O5)cc(C)cc2n1` (stereo not shown) [Example 120, (2-(2-methoxy-7-methylquinoxalin-5-yl)-4-methyl-7,8-dihydro-[1,4]dioxino[2′,3′:3,4]benzo[1,2-d]thiazol-7-yl)methyl (6-methylpyridin-3-yl)carbamate] the IC50 was 0.9 nM.
With `COc1cnc2c(-c3nc4c(C)cc5c(c4s3)OCC(COC(=O)Nc3ccc(Oc4ccccc4)nc3)O5)cc(C)cc2n1` (stereo not shown) [Example 121, (2-(2-methoxy-7-methylquinoxalin-5-yl)-4-methyl-7,8-dihydro-[1,4]dioxino [2′,3′:3,4]benzo[1,2-d]thiazol-7-yl)methyl (6-phenoxypyridin-3-yl)carbamate] the IC50 was 8.2 nM.
`COc1cnc2c(-c3nc4c(C)cc5c(c4s3)OCC(COC(=O)Nc3cnc(F)c(C)c3)O5)cc(C)cc2n1` (stereo not shown) [Example 122, (2-(2-methoxy-7-methylquinoxalin-5-yl)-4-methyl-7,8-dihydro-[1,4]dioxino[2′,3′:3,4]benzo [1,2-d]thiazol-7-yl)methyl (6-fluoro-5-methylpyridin-3-yl)carbamate] showed an IC50 of 2.5 nM.
`COc1cnc2c(-c3nc4c(C)cc5c(c4s3)OCC(COC(=O)Nc3ccc(O)nc3)O5)cc(C)cc2n1` (stereo not shown) [Example 123, (2-(2-methoxy-7-methylquinoxalin-5-yl)-4-methyl-7,8-dihydro-[1,4]dioxino[2′,3′:3,4]benzo [1,2-d]thiazol-7-yl)methyl (6-hydroxypyridin-3-yl)carbamate] gave an IC50 of 18 nM.
`COc1cnc2c(-c3nc4c(C)cc5c(c4s3)OCC(COC(=O)Nc3cncc(C)c3)O5)cc(C)cc2n1` (stereo not shown) [Example 124, (2-(2-methoxy-7-methylquinoxalin-5-yl)-4-methyl-7,8-dihydro-[1,4]dioxino[2′,3′:3,4]benzo[1,2-d]thiazol-7-yl)methyl (5-methylpyridin-3-yl)carbamate] gave an IC50 of 3.2 nM.
Work on `COc1cnc2c(-c3nc4c(C)cc5c(c4s3)OCC(COC(=O)Nc3ccc(-c4ccccc4)nc3)O5)cc(C)cc2n1` (stereo not shown) [Example 125, (2-(2-methoxy-7-methylquinoxalin-5-yl)-4-methyl-7,8-dihydro-[1,4]dioxino[2′,3′:3,4]benzo[1,2-d]thiazol-7-yl)methyl (6-phenylpyridin-3-yl)carbamate] yielded an IC50 of 35 nM.
With `COc1cnc2c(-c3nc4c(C)cc5c(c4s3)OCC(COC(=O)Nc3cncc(-c4ccccc4)c3)O5)cc(C)cc2n1` (stereo not shown) [Example 126, (2-(2-methoxy-7-methylquinoxalin-5-yl)-4-methyl-7,8-dihydro-[1,4]dioxino[2′,3′:3,4]benzo[1,2-d]thiazol-7-yl)methyl (5-phenylpyridin-3-yl)carbamate] the IC50 was 67 nM.
`COc1cnc2c(-c3nc4c(C)cc5c(c4s3)OCC(COC(=O)Nc3ccc(-c4cccs4)nc3)O5)cc(C)cc2n1` (stereo not shown) [Example 127, (2-(2-methoxy-7-methylquinoxalin-5-yl)-4-methyl-7,8-dihydro-[1,4]dioxino[2′,3′:3,4]benzo[1,2-d]thiazol-7-yl)methyl (6-(thiophen-2-yl)pyridin-3-yl) carbamate] was tested, and the IC50 was 130 nM.
